Reference: patent publication US9133183B2, “Imidazolidinones and analogs exhibiting anti-cancer and anti-proliferative activities” (Deciphera Pharmaceuticals, LLC, priority 2013, dated 2015)
Where two headings read alike, the source gives them in different places.

Tests used:
[1] = molecular target: unphosphorylated c-FMS kinase (uFMS, Seq. ID no. 1) (Homo sapiens (Human), UniProt P07333); experiment: uFMS kinase assay (ADP production coupled to pyruvate kinase/lactate dehydrogenase); type: biochemical; conditions: enzymatic assay, ATP 500 μM
Protocol: uFMS kinase (Seq. ID No. 1) Assay
In this assay, the oxidation of NADH (thus the decrease at A340 nm) was continuously monitored spectrophometrically. The reaction mixture (100 μL) contained FMS (purchased from Millipore) (10 nM), polyE4Y (1 mg/mL), MgCl2 (10 mM), pyruvate kinase (4 units), lactate dehydrogenase (0.7 units), phosphoenol pyruvate (1 mM), NADH (0.28 mM) and ATP (500 μM) in 90 mM Tris buffer containing 0.2% octyl-glucoside and 1% DMSO, pH 7.5. The inhibition reaction was started by mixing serial diluted test compound with the above reaction mixture. The absorption at 340 nm was monitored continuously for 4 hours at 30° C. on Synergy 2 plate reader. The reaction rate was calculated using the 3 to 4 h time frame. Percent inhibition was obtained by comparison of reaction rate with that of a control (i.e., in the absence of test compound). IC50 values were calculated from a series of percent inhibition values determined at a range of inhibitor concentrations using software routines as implemented in the GraphPad Prism software package.
uFMS Kinase Sequence (Y538-End) Used for Screening (Seq. ID No. 1)

M-NFS-60 cells = experiment: M-NFS-60 cell proliferation assay (resazurin); type: cell-based; conditions: 67 h incubation
Protocol: M-NFS-60 cells (catalog #CRL-1838) were obtained from the American Type Culture Collection (ATCC, Manassas, Va.). Briefly, cells were grown in suspension in RPMI 1640 medium supplemented with 10% characterized fetal bovine serum (Invitrogen, Carlsbad, Calif.), 0.05 mM 2-mercaptoethanol, and 20 ng/mL mouse recombinant macrophage colony stimulating factor (M-CSF) at 37° C., 5% CO2, and 95% humidity. Cells were allowed to expand until reaching saturation at which point they were subcultured or harvested for assay use.
M-NFS-60 Cell Proliferation Assay
A serial dilution of test compound was dispensed into a 384-well black clear bottom plate (Corning, Corning, N.Y.). Two thousand five hundred cells were added per well in 50 μL complete growth medium. Plates were incubated for 67 h at 37° C., 5% CO2, and 95% humidity. At the end of the incubation period 10 μL of a 440 μM solution of resazurin (Sigma, St. Louis, Mo.) in PBS was added to each well and incubated for an additional 5 h at 37° C., 5% CO2, and 95% humidity. Plates were read on a Synergy2 reader (Biotek, Winooski, Vt.) using an excitation of 540 nm and an emission of 600 nm. IC50 values were calculated from a series of percent inhibition values determined at a range of inhibitor concentrations using software routines as implemented in the GraphPad Prism software package.

osteoclast precursors = experiment: Osteoclast tartrate-resistant acid phosphatase assay; type: cell-based; conditions: Osteoclast, 7-14 days, RANKL and M-CSF
Protocol: Osteoclast Tartrate-Resistant Acid Phosphatase Assay
A serial dilution of test compound was dispensed into a 384-well black clear bottom plate (Nalge Nunc International, Rochester, N.Y.). Compound was diluted by the addition of DMEM media supplemented with 10% characterized fetal bovine serum (Invitrogen, Carlsbad, Calif.). Diluted compound was transferred to a 384-well black clear bottom plate. Two-thousand five hundred osteoclast precursors (Lonza, Walkersville, Md.) were added per well in growth media containing Receptor Activator of Nuclear Factor Kappa-beta ligand (RANKL) and M-CSF (R&D Systems, Minneapolis, Minn.). Plates were incubated for 7-14 days at 37 degrees Celsius, 5% CO2, and 95% humidity to allow differentiation of osteoclast precursors. At the end of the incubation period, 10 μL of supernatant from each well was transferred to a clear 384-well plate. Tartrate-resistant acid phosphatase activity in the supernatant samples was determined using an acid phosphatase assay kit (Sigma, St. Louis, Mo.). Absorbance was measured at 550 nm using a plate reader. Data was analyzed using Prism software (Graphpad, San Diego, Calif.) to calculate IC50 values.

[2] = molecular target: unphosphorylated c-KIT kinase (uKIT, Seq. ID no. 2) (Homo sapiens (Human), UniProt P10721); experiment: uKit kinase assay (coupled pyruvate kinase/lactate dehydrogenase); type: biochemical; conditions: enzymatic assay, ATP 2000 μM
Protocol: uKit Kinase (Seq. ID No. 2) Assay
Activity of unphosphorylated c-KIT kinase (uKIT, Seq. ID no. 2) was determined by following the production of ADP from the KIT kinase reaction with ATP and poly E4Y as substrates through coupling with the pyruvate kinase/lactate dehydrogenase system (e.g., Schindler et al. Science (2000) 289: 1938-1942). In this assay, the oxidation of NADH (thus the decrease at A340 nm) was continuously monitored spectrophometrically. The reaction mixture (100 μl) contained unphosphorylated KIT (12 nM), polyE4Y (1 mg/mL), MgCl2 (10 mM), pyruvate kinase (4 units), lactate dehydrogenase (0.7 units), phosphoenol pyruvate (1 mM), and NADH (0.28 mM) and ATP (2000 μM) in 90 mM Tris buffer containing 0.2% octyl-glucoside and 1% DMSO, pH 7.5. The inhibition reaction was started by mixing serial diluted test compound with the above reaction mixture. The absorption at 340 nm was monitored continuously for 4 hours at 30° C. on Synergy 2 plate reader (BioTech). Reaction rates around 3 to 4 h time frame were used to calculate % inhibitions, from which IC50 values were generated.
uKit with N-Terminal GST Fusion Used for Screening (Seq ID No. 2)

Sequence of unphosphorylated c-KIT kinase (uKIT, Seq. ID no. 2) (P10721 other isoform, or with tags, fused parts or gaps): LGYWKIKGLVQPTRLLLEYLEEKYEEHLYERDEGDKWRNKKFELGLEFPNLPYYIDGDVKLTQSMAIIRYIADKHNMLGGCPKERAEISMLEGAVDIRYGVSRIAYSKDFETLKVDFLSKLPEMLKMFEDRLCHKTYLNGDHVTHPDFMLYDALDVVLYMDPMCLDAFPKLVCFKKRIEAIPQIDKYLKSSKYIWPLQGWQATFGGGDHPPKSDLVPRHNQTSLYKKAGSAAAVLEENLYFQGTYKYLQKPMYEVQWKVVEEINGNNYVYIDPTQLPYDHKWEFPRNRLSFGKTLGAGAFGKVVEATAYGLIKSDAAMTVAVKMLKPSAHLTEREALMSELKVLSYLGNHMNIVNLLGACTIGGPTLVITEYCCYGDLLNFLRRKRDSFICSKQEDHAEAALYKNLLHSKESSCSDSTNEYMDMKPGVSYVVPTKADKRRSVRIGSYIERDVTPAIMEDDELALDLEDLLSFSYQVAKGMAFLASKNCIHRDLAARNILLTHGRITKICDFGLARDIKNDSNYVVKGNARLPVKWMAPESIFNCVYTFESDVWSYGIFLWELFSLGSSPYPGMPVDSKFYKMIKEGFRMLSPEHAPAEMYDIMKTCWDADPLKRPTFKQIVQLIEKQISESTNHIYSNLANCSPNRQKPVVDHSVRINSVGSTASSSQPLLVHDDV
Sequence of unphosphorylated c-FMS kinase (uFMS, Seq. ID no. 1) (P07333 538-972): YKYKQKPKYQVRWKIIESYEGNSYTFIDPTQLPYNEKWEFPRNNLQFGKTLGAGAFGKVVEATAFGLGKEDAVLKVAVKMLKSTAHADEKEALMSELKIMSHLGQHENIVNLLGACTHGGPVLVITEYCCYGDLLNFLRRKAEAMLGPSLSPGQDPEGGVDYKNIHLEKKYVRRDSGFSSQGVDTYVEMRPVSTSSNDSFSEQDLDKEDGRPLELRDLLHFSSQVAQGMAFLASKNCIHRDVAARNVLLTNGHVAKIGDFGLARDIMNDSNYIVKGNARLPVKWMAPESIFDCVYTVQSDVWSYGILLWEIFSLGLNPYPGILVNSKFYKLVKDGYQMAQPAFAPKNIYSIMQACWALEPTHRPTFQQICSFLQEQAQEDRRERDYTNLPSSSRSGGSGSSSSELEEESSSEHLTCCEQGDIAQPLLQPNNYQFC

| IC50 ([1]; read-out: uFMS) [nM] | IC50 (osteoclast precursors) [nM] | IC50 [2] [nM] | Compound | IC50 (M-NFS-60 cells) [nM] | IC50 ([1]; uFMS) [nM] |
| --- | --- | --- | --- | --- | --- |
| 10 to 100 | – | – | [2H]C([2H])([2H])n1cc(-c2cc(Oc3ccc(NC(=O)N4CCN(C5CCOCC5)C4=O)nc3)ccn2)cn1 [Example 6, 2-oxo-3-(tetrahydro-2H-pyran-4-yl)-N-(5-((2-(1-(trideuteromethyl)-1H-pyrazol-4-yl)pyridin-4-yl)oxy)pyridin-2-yl)imidazolidine-1-carboxamide] | 10 to 100 | – |
| 10 to 100 | 10 to 100 | – | Cn1cc(-c2cc(Oc3ccc(NC(=O)N4CCN(C5CCOC(C)(C)C5)C4=O)nc3)ccn2)cn1 (centres unmarked) [Example 13, 3-(2,2-dimethyltetrahydro-2H-pyran-4-yl)-N-(5-((2-(1-methyl-1H-pyrazol-4-yl)pyridin-4-yl)oxy)pyridin-2-yl)-2-oxoimidazolidine-1-carboxamide] | 100 to 1000 | – |
| < 10 | – | 10 to 100 | CC1CN(C(=O)Nc2ccc(Oc3ccnc(-c4cnn(C)c4)c3)cn2)C(=O)N1C1CCOCC1 (centres unmarked) [Example 40, 4-methyl-N-(5-((2-(1-methyl-1H-pyrazol-4-yl)pyridin-4-yl)oxy)pyridin-2-yl)-2-oxo-3-(tetrahydro-2H-pyran-4-yl)imidazolidine-1-carboxamide] | 10 to 100 | – |
| 100 to 1000 | > 1000 | > 1000 | CCc1nc(NC(=O)N2CCN(C3CCOCC3)C2=O)ccc1Oc1ccnc(-c2ccnc(C)c2)c1 [Example 64, N-(6-ethyl-5-((2′-methyl-[2,4′-bipyridin]-4-yl)oxy)pyridin-2-yl)-2-oxo-3-(tetrahydro-2H-pyran-4-yl)imidazolidine-1-carboxamide] | > 1000 | – |
| 10 to 100 | 10 to 100 | – | Cc1c(Oc2ccnc(-c3cnn(C)c3)c2)ccc(NC(=O)N2CCN(C3CCOCC3)C2=O)c1F [Example 93, N-(2-fluoro-3-methyl-4-((2-(1-methyl-1H-pyrazol-4-yl)pyridin-4-yl)oxy)phenyl)-2-oxo-3-(tetrahydro-2H-pyran-4-yl)imidazolidine-1-carboxamide] | 100 to 1000 | – |
| 10 to 100 | 10 to 100 | – | Cn1cc(-c2cc(Oc3ccc(NC(=O)N4CCN(C5CCOCC5)C4=O)c(F)c3)ccn2)cn1 [Example 95, N-(2-fluoro-4-((2-(1-methyl-1H-pyrazol-4-yl)pyridin-4-yl)oxy)phenyl)-2-oxo-3-(tetrahydro-2H-pyran-4-yl)imidazolidine-1-carboxamide] | 10 to 100 | – |
| 10 to 100 | 100 to 1000 | – | Cn1cc(-c2cc(Oc3ccc(NC(=O)N4CCN(C5CCOCC5)C4=O)cc3F)ccn2)cn1 [Example 102, N-(3-fluoro-4-((2-(1-methyl-1H-pyrazol-4-yl)pyridin-4-yl)oxy)phenyl)-2-oxo-3-(tetrahydro-2H-pyran-4-yl)imidazolidine-1-carboxamide] | > 1000 | – |
| < 10 | – | 10 to 100 | Cn1cc(-c2cc(Oc3ccc(NC(=O)N4CCN(C5CCOCC5)C4=O)c(F)c3Cl)ccn2)cn1 [Example 113, N-(3-chloro-2-fluoro-4-((2-(1-methyl-1H-pyrazol-4-yl)pyridin-4-yl)oxy)phenyl)-2-oxo-3-(tetrahydro-2H-pyran-4-yl)imidazolidine-1-carboxamide] | 100 to 1000 | – |

The next lines start with the compound.

| Compound | IC50 ([1]; read-out: uFMS) [nM] | IC50 (osteoclast precursors) [nM] | IC50 [2] [nM] | IC50 (M-NFS-60 cells) [nM] | IC50 ([1]; uFMS) [nM] |
| --- | --- | --- | --- | --- | --- |
| COC1(CCN2CCN(C(=O)Nc3ccc(Oc4ccnc(-c5cnn(C)c5)c4)cn3)C2=O)CC1 [Example 17, 3-(2-(1-methoxycyclopropyl)ethyl)-N-(5-((2-(1-methyl-1H-pyrazol-4-yl)pyridin-4-yl)oxy)pyridin-2-yl)-2-oxoimidazolidine-1-carboxamide] | – | 10 to 100 | – | 10 to 100 | 10 to 100 |
| COC[C@H](C)N1CCN(C(=O)Nc2ccc(Oc3ccnc(-c4cnn(C)c4)c3)c(C)n2)C1=O [Example 38, (S)-3-(1-methoxypropan-2-yl)-N-(6-methyl-5-((2-(1-methyl-1H-pyrazol-4-yl)pyridin-4-yl)oxy)pyridin-2-yl)-2-oxoimidazolidine-1-carboxamide] | – | < 10 | < 10 | 10 to 100 | 10 to 100 |
| COCCN1CCN(C(=O)Nc2ccc(Oc3ccnc(-c4cnc(C)s4)c3)cn2)C1=O [Example 62, 3-(2-methoxyethyl)-N-(5-((2-(2-methylthiazol-5-yl)pyridin-4-yl)oxy)pyridin-2-yl)-2-oxoimidazolidine-1-carboxamide] | 100 to 1000 | 100 to 1000 | 100 to 1000 | 100 to 1000 | – |
| CCc1nc(NC(=O)N2CCN(C3CCOCC3)C2=O)ccc1Oc1ccnc(-c2ccc(C)nc2)c1 [Example 63, N-(6-ethyl-5-((6′-methyl-[2,3′-bipyridin]-4-yl)oxy)pyridin-2-yl)-2-oxo-3-(tetrahydro-2H-pyran-4-yl)imidazolidine-1-carboxamide] | 100 to 1000 | > 1000 | > 1000 | > 1000 | – |
| COCCN1CCN(C(=O)Nc2cc(F)c(Oc3ccnc(-c4cnn(C)c4)c3)cc2F)C1=O [Example 98, N-(2,5-difluoro-4-((2-(1-methyl-1H-pyrazol-4-yl)pyridin-4-yl)oxy)phenyl)-3-(2-methoxyethyl)-2-oxoimidazolidine-1-carboxamide] | 100 to 1000 | 10 to 100 | – | 100 to 1000 | – |
| COC1(CCN2CCN(C(=O)Nc3cc(Cl)c(Oc4ccnc(-c5cnn(C)c5)c4)cc3F)C2=O)CC1 [Example 99, N-(5-chloro-2-fluoro-4-((2-(1-methyl-1H-pyrazol-4-yl)pyridin-4-yl)oxy)phenyl)-3-(2-(1-methoxycyclopropyl)ethyl)-2-oxoimidazolidine-1-carboxamide] | 10 to 100 | 10 to 100 | – | 10 to 100 | – |
| COCCN1CCN(C(=O)Nc2cc(Cl)c(Oc3ccnc(-c4cnn(C)c4)c3)cc2F)C1=O [Example 100, N-(5-chloro-2-fluoro-4-((2-(1-methyl-1H-pyrazol-4-yl)pyridin-4-yl)oxy)phenyl)-3-(2-methoxyethyl)-2-oxoimidazolidine-1-carboxamide] | 10 to 100 | 10 to 100 | – | 100 to 1000 | – |
| N#CCC(=O)Nc1cc(Oc2cc(F)c(NC(=O)N3CCN(C4CCOCC4)C3=O)cc2Cl)ccn1 [Example 114, N-(5-chloro-4-((2-(2-cyanoacetamido)pyridin-4-yl)oxy)-2-fluorophenyl)-2-oxo-3-(tetrahydro-2H-pyran-4-yl)imidazolidine-1-carboxamide] | > 1000 | – | > 1000 | – | – |
